Results from US7691855B2, “Phenyl-[4-(3-phenyl-1h-pyrazol-4-yl)-pyrimidin-2-yl)-amine derivatives” (Novartis AG, priority 2002, dated 2010).

Key:
[1] = biological target: ErbB-2 (HER-2) (Homo sapiens, UniProt P04626); assay: Inhibition of ErbB-2 (HER-2) tyrosine kinase activity; assay type: biochemical
Protocol: The inhibitory activity (IC50) is approximately in the range of 0.001 to 0.5 μM. The inhibition of ErbB2 tyrosine kinase (HER-2) can be determined, for example, analogously to the method used for EGF-R protein tyrosine kinase [see C. House et al., Europ. J. Biochem. 140. 363-367 (1984)]. The ErbB-2 kinase can be isolated, and its activity determined, by means of protocols known per se, for example in accordance with T. Akiyama et al., Science 232 1644 (1986).
(§1) Inhibition of the tyrosine kinase Activity of EGF-R (HER-1), ErbB-2 (HER-2) and VEGF Receptor (KDR)
(§2) The inhibition tests are carried out as described above.

[2] = biological target: T1, EGF-R (HER-1) (Homo sapiens, UniProt P00533); assay: Inhibition of EGF-R (HER-1) tyrosine kinase activity; assay type: biochemical; conditions: recombinant intracellular domain of the EGF-receptor
T1 construct: using the recombinant intracellular domain of the EGF-receptor [EGF-R ICD
Protocol: J. Biochem. 207, 265-275 (1992)]. Compared with the control without inhibitor, the compounds of formula I inhibit the enzyme activity by 50% (IC50), for example in a concentration of from 0.0005 to 0.5 μM, especially from 0.001 to 0.1 μM.
as §1, §2

[3] = biological target: T2, VEGF Receptor (KDR) (Homo sapiens, UniProt P35968); assay: Inhibition of VEGF receptor (KDR) tyrosine kinase activity; assay type: biochemical
T2 construct: as in the cited Wood et al. 2000 method
Protocol: The compounds of the present invention are therefore very effective dual inhibitors of EGF- and VEGF-receptor family members. For inhibition of KDR and Flt-1 and inhibition of growth factor-induced proliferation of HUVECS see J. Wood et al., Cancer Res. 60, 2178-2189 (2000). The compounds of formula I inhibit e.g. the KDR tyrosine kinase activity with an IC50 of from about 1 nM to about 1 μM, especially from about 5 nM to about 0.5 μM.
as §1, §2

T2 sequence (P35968 834-1162 limits assumed): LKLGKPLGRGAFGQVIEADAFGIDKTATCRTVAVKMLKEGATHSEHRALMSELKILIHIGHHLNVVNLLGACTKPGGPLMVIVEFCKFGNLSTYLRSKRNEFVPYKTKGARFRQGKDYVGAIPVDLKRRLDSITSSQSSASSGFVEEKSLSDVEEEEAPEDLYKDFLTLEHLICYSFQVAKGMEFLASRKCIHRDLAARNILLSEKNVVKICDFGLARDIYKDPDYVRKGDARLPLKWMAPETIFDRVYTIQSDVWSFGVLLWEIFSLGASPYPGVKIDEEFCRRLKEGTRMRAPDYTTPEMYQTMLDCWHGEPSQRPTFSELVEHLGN
T1 sequence (P00533 669-1210 limits assumed): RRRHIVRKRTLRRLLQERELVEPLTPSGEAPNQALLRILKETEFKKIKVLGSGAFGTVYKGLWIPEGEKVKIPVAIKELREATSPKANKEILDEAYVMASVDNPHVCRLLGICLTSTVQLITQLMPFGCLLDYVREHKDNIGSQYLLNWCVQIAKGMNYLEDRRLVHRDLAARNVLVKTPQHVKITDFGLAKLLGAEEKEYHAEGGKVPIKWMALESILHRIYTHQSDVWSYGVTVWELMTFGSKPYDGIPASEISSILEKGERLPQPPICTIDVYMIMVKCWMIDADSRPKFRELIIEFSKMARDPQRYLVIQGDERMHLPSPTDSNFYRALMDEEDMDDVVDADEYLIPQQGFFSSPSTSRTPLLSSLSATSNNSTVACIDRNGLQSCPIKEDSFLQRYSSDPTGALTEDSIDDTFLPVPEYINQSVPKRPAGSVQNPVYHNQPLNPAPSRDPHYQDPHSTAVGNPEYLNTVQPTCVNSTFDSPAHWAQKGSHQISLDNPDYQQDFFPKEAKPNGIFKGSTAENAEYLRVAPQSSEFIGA
ErbB-2 (HER-2), sequence (P04626 23-1255): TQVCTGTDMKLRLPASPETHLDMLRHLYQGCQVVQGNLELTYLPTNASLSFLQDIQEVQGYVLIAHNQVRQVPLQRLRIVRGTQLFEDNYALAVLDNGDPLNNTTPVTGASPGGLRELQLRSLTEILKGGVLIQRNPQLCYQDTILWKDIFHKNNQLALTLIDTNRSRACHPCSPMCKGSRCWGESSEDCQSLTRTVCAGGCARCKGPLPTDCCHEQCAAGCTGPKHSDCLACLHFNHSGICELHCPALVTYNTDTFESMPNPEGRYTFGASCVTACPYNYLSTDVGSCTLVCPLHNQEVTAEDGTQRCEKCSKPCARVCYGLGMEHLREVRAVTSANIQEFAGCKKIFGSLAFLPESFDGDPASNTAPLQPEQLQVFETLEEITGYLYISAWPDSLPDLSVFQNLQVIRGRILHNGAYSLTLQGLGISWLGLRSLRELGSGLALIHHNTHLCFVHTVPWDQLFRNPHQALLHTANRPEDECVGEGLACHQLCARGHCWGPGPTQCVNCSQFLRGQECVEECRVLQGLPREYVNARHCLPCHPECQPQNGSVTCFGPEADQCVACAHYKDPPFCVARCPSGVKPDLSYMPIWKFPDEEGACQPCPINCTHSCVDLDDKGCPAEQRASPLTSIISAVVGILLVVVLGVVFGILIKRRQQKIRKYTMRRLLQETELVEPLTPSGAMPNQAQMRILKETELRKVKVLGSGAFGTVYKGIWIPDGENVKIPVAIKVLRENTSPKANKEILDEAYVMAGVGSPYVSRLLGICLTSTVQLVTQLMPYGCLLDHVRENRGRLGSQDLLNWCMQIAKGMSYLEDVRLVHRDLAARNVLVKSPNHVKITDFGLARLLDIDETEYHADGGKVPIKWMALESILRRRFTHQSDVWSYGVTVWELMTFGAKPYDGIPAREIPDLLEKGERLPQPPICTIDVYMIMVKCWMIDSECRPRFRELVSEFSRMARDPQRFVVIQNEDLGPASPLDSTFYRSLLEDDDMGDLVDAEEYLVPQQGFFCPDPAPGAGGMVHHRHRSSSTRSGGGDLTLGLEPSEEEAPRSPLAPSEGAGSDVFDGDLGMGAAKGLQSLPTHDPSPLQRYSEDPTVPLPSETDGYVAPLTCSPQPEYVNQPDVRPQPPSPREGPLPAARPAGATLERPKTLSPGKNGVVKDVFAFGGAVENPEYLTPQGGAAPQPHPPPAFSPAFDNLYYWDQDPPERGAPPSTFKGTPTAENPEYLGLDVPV

IC50 [1] [nM] | melting point [°C] | IC50 [2] [nM] | IC50 [3] [nM] | Structure (SMILES)
34 | 280 | 16 | 3 | CCN1CCN(c2ccc(Nc3nccc(-c4c[nH]nc4-c4ccc(C)cc4)n3)cc2)CC1 [Example 109, [4-(4-Ethyl-piperazin-1-yl)-phenyl]-[4-(3-p-tolyl-1H-pyrazol-4yl)-pyrimidin-2-yl]-amine]
< 10 | 369 | 9 | 21 | Clc1ccc(-c2n[nH]cc2-c2ccnc(Nc3ccc(-c4nnn[nH]4)cc3)n2)cc1 [Example 116, {4-[3-(4-Chloro-phenyl)-1H-pyrazol-4-yl]-pyrimidin-2-yl}-[4-(1H-tetrazol-5-yl)-phenyl]-amine]
